Measured values from ChEMBL document CHEMBL1141094, “Bisphosphonate inhibition of the exopolyphosphatase activity of the Trypanosoma brucei soluble vacuolar pyrophosphatase” (J Med Chem, 2005).

How the values were obtained:
[1] = test system: KB; assay: Dose to inhibit the growth of human KB carcinoma cell line; type: functional; conditions: read-out: ED50 (the source's name)
[2] = molecular target: T1, Vacuolar-type proton translocating pyrophosphatase 1 (Trypanosoma brucei) (UniProt Q8MTZ4); assay: Ratio of ED50 against KB cell line to that of IC50 of TbVSP1; type: functional, cell-based
T1 sequence (whole entry): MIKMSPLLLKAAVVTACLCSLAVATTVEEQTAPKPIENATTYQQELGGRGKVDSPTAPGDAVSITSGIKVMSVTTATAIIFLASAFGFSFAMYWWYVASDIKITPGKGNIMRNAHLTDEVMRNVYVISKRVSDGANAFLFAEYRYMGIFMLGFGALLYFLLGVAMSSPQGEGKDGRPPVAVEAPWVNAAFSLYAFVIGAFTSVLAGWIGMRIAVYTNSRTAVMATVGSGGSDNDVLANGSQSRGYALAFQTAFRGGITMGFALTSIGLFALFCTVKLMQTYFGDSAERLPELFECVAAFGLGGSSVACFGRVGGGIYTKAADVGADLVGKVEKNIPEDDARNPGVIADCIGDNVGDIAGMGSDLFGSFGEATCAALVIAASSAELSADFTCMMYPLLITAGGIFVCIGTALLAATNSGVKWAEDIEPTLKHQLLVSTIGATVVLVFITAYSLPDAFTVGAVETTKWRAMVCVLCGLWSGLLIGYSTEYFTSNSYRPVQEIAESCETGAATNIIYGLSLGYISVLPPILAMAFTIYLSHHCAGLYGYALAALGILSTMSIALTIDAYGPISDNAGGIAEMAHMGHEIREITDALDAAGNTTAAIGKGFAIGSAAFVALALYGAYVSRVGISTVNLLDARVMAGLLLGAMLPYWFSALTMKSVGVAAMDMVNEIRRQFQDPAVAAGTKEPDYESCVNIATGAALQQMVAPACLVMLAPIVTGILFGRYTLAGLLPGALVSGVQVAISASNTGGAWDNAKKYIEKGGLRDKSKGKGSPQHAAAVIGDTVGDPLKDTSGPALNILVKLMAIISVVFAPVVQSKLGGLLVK

Row | SMILES | EC50 [1] [µM] | TI [2]
1 | O=P(O)(O)C(NC1CCCCCC1)P(=O)(O)O [INCADRONIC ACID] | 166 | 3.7
2 | O=P(O)(O)C(O)(Cc1cccc(Cl)c1)P(=O)(O)O | 283 | 38
3 | CCCNC(P(=O)(O)O)P(=O)(O)O [(PROPYLAMINO)METHYLENEDIPHOSPHONIC ACID] | 499 | 10
4 | O=P(O)(O)C(O)(Cn1ccnc1)P(=O)(O)O [ZOLEDRONIC ACID] | 63.7 | 0.3
5 | CCCCCCCCCC(O)(P(=O)(O)O)P(=O)(O)O | 892 | 2.5
6 | CN(CCOc1ccccc1)CCC(O)(P(=O)(O)O)P(=O)(O)O | 312 | 1
7 | O=P(O)(O)C(Nc1ccc(-c2ccccc2)cc1)P(=O)(O)O | 495 | 1.4
8 | CC(C)c1cccc(C(C)C)c1NC(P(=O)(O)O)P(=O)(O)O | 713 | 28
9 | CCc1ccc(NC(P(=O)(O)O)P(=O)(O)O)cc1 | 257 | 21
10 | CCCCNC(P(=O)(O)O)P(=O)(O)O [(BUTYLAMINO)METHYLENEDIPHOSPHONIC ACID] | 212 | 4.9
11 | CCCCOc1ccc(NC(P(=O)(O)O)P(=O)(O)O)cc1 | 210 | 5.3
12 | CCc1cccc(NC(P(=O)(O)O)P(=O)(O)O)c1 | 1020 | 423
13 | O=P(O)(O)C(Nc1cccc(-c2ccccc2)c1)P(=O)(O)O | 749 | 174
14 | CC(C)(C)c1cc(NC(P(=O)(O)O)P(=O)(O)O)cc(C(C)(C)C)c1 | 634 | 39
15 | O=P(O)(O)C(O)(Cc1cccc(Br)c1)P(=O)(O)O | 228 | 25
16 | CCCCCC(O)(P(=O)(O)O)P(=O)(O)O | 107 | 10
17 | O=P(O)(O)C(Nc1ccc(Cl)cc1Cl)P(=O)(O)O [2,4-DICHLOROPHENYLAMINOMETHYLENEBISPHOSPHONIC ACID] | 728 | 169

Row | SMILES | EC50 [1] [µM] | TI [2]
18 | O=P(O)(O)C(O)(Cc1cccnc1)P(=O)(O)O [RISEDRONIC ACID] | 255 | 0.4
19 | O=P(O)(O)C(Nc1ccc2c(c1)CCC2)P(=O)(O)O | 976 | 101
20 | Cc1cccc(CC(O)(P(=O)(O)O)P(=O)(O)O)c1 | 0.9 | 0.04
21 | O=[N+]([O-])c1cccc(CC(O)(P(=O)(O)O)P(=O)(O)O)c1 | 727 | 44
22 | CC(C)c1cccc(NC(P(=O)(O)O)P(=O)(O)O)c1 | 771 | 79
23 | O=P(O)(O)C(O)(Cc1cccc(C(F)(F)F)c1)P(=O)(O)O | 109 | 6.3
24 | CCn1c2ccccc2c2ccc(NC(P(=O)(O)O)P(=O)(O)O)cc21 | 710 | 19
25 | CCc1cccc(NC(P(=O)(O)O)P(=O)(O)O)n1 | 847 | 15
26 | O=P(O)(O)C(CNc1ccccn1)P(=O)(O)O | 144 | 0.4
27 | CCCCCCCCCCCCCCCC(O)(P(=O)(O)O)P(=O)(O)O | 729 | 2.1
28 | CCCCCCCCC(O)(P(=O)(O)O)P(=O)(O)O | 64 | 1.3
29 | O=P(O)(O)C(O)(Cc1cccc(F)c1)P(=O)(O)O | 225 | 20
30 | Nc1ccc(CC(O)(P(=O)(O)O)P(=O)(O)O)cc1 | 218 | 4
31 | O=P(O)(O)C(O)(Cc1cccc2ccccc12)P(=O)(O)O | 847 | 75
32 | CCCCCCCCCNC(P(=O)(O)O)P(=O)(O)O [(NONYLAMINO)METHYLENEDIPHOSPHONIC ACID] | 919 | 16
33 | CCCCC(O)(P(=O)(O)O)P(=O)(O)O | 1040 | 82
34 | O=P(O)(O)C(Nc1cccc(Cc2ccccc2)c1)P(=O)(O)O | 645 | 14
